{
  "source": "ChEMBL document CHEMBL5465560",
  "about": "“Selectivity Literature for EUbOPEN Chemogenomic Library” (2024)",
  "key": {"[1]": {"biological_target": "Serine/threonine-protein kinase 10 (Homo sapiens) (UniProt O94804)", "sequence (O94804 whole entry, looked up)": "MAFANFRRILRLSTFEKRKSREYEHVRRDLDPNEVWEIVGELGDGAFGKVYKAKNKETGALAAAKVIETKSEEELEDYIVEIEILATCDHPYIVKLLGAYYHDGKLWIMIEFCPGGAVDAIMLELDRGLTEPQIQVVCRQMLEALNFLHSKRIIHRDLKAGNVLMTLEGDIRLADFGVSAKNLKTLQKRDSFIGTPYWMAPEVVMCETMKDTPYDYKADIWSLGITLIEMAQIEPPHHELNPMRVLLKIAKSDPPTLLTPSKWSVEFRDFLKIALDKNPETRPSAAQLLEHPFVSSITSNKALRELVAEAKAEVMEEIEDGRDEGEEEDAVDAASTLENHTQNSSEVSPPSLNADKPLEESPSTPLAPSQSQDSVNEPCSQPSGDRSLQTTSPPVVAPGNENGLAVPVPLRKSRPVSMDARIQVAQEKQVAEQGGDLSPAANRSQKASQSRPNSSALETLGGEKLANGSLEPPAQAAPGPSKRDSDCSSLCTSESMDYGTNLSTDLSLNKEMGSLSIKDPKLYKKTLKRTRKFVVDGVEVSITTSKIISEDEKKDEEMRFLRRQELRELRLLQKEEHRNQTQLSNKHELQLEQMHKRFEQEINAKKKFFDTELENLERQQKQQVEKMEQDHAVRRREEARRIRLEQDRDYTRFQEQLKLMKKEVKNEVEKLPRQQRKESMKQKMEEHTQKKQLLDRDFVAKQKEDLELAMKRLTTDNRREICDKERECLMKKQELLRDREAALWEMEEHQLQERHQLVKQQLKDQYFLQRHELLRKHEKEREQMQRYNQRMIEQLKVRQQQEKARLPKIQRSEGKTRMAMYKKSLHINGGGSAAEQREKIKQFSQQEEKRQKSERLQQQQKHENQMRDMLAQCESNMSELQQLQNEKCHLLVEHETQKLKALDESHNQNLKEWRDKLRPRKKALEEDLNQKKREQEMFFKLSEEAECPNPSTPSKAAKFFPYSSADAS", "test": "Selectivity interaction (ActivX KiNativ screen (kinase selectivity in THP-1 cell lysates)) EUB0000639a STK10", "assay_type": "subcellular", "conditions": "lysate, at 0.04 µM"}, "[2]": {"biological_target": "Calcium/calmodulin-dependent protein kinase type II subunit beta (Homo sapiens) (UniProt Q13554)", "test": "Selectivity interaction (KinomeScan (DiscoverX)) EUB0001049a CAMK2B", "conditions": "at 1 µM"}, "[3]": {"biological_target": "T1, Serine/threonine-protein kinase DCLK1 (Homo sapiens) (UniProt O15075)", "T1 sequence (whole entry)": "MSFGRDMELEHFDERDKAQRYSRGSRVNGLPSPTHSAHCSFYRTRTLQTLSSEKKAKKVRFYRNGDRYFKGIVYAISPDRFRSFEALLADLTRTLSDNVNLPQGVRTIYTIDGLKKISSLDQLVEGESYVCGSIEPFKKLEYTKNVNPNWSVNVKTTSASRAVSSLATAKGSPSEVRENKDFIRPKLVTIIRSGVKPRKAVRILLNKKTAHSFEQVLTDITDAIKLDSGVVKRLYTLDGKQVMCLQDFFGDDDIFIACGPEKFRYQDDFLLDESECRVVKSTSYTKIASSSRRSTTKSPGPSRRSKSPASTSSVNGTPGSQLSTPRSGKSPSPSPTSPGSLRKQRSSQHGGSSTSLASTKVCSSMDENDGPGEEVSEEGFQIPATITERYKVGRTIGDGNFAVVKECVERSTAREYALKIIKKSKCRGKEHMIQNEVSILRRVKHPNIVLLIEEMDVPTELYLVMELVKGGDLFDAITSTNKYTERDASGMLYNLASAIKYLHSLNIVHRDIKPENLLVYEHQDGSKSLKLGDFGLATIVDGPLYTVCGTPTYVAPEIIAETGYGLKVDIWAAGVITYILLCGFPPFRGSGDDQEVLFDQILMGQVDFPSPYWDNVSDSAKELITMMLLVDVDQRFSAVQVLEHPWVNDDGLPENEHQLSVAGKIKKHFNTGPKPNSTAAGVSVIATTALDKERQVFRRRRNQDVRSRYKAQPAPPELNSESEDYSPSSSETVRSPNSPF", "test": "Selectivity interaction (KinomeScan (DiscoverX)) EUB0001049a DCLK1", "conditions": "at 1 µM"}, "[4]": {"biological_target": "Vascular endothelial growth factor receptor 1 (Homo sapiens) (UniProt P17948)", "sequence (P17948 whole entry)": "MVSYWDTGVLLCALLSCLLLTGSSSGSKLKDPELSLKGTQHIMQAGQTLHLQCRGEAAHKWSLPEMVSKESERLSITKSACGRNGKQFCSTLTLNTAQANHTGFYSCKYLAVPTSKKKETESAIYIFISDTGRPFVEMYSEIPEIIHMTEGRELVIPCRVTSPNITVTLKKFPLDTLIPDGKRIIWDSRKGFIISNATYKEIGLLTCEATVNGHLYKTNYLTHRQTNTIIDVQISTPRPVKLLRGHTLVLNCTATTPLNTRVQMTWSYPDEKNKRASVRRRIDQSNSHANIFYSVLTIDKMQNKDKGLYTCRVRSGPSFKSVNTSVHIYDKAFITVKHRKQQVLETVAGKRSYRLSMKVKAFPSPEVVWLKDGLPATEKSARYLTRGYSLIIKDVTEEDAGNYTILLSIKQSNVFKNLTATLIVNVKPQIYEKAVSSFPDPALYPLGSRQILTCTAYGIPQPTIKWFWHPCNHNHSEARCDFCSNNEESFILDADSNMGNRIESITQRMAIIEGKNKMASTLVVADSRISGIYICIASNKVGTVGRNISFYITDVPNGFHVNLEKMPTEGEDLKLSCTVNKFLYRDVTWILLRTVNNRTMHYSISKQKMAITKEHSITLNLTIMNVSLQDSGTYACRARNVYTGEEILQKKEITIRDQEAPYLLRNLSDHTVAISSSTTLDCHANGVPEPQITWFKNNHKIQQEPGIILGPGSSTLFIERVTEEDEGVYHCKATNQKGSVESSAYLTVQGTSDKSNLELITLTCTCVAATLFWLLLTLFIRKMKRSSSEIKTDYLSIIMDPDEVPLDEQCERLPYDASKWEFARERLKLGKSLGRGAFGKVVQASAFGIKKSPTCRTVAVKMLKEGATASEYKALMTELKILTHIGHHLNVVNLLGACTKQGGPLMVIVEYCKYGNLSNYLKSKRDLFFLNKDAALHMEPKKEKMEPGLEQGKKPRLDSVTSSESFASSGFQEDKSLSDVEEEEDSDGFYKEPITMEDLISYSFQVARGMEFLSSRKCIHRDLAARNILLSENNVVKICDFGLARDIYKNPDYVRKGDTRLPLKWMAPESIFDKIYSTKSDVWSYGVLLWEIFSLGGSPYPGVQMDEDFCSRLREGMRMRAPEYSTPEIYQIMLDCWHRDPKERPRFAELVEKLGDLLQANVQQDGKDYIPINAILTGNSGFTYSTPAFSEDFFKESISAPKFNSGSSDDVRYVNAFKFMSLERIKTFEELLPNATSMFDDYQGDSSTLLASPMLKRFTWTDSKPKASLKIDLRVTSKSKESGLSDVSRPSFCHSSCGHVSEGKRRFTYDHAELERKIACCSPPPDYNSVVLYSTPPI", "test": "Selectivity interaction (Ambit KINOMEscan and KiNATiv profiling in Jurkat cells) EUB0000090b FLT1", "assay_type": "cell-based", "conditions": "at 1 µM"}, "[5]": {"biological_target": "Cyclin-dependent kinase 14 (Homo sapiens) (UniProt O94921)", "sequence (O94921 whole entry)": "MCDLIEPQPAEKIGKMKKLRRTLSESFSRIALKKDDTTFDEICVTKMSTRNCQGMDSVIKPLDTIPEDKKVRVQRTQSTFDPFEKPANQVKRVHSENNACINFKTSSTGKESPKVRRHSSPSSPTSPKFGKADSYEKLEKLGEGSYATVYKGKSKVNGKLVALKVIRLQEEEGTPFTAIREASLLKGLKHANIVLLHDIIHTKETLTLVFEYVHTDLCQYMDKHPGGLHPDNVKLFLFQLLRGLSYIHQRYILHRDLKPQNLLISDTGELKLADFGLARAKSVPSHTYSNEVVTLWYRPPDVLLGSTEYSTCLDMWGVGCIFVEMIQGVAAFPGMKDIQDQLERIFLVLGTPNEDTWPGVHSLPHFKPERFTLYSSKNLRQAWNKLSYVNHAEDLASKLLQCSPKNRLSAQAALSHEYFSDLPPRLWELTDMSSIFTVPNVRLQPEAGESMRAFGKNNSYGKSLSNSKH", "test": "Selectivity interaction (Ambit KINOMEscan and KiNATiv profiling in Jurkat cells) EUB0000090b CDK14", "assay_type": "cell-based", "conditions": "at 1 µM"}, "[6]": {"biological_target": "Ribosomal protein S6 kinase beta-1 (Homo sapiens, UniProt P23443)", "sequence (P23443 whole entry, looked up)": "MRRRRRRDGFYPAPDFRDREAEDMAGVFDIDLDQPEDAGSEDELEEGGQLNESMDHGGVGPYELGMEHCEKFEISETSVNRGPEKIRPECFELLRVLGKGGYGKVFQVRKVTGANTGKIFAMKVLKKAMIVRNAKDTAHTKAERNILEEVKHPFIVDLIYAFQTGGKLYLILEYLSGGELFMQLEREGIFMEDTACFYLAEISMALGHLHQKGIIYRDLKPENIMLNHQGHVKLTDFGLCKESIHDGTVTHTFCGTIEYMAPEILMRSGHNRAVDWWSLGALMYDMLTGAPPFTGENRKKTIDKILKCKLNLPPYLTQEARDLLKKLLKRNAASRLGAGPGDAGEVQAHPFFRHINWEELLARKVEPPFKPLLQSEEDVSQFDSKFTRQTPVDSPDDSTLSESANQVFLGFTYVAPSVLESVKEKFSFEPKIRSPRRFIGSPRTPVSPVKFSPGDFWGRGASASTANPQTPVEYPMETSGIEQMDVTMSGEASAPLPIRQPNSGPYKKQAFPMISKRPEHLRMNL", "test": "Selectivity interaction (Ambit KINOMEscan and KiNATiv profiling in Jurkat cells) EUB0000090b RPS6KB1", "assay_type": "cell-based", "conditions": "at 1 µM"}, "[7]": {"biological_target": "Serine/threonine-protein kinase/endoribonuclease IRE1 (Homo sapiens) (UniProt O75460)", "sequence (O75460 19-977 limits assumed)": "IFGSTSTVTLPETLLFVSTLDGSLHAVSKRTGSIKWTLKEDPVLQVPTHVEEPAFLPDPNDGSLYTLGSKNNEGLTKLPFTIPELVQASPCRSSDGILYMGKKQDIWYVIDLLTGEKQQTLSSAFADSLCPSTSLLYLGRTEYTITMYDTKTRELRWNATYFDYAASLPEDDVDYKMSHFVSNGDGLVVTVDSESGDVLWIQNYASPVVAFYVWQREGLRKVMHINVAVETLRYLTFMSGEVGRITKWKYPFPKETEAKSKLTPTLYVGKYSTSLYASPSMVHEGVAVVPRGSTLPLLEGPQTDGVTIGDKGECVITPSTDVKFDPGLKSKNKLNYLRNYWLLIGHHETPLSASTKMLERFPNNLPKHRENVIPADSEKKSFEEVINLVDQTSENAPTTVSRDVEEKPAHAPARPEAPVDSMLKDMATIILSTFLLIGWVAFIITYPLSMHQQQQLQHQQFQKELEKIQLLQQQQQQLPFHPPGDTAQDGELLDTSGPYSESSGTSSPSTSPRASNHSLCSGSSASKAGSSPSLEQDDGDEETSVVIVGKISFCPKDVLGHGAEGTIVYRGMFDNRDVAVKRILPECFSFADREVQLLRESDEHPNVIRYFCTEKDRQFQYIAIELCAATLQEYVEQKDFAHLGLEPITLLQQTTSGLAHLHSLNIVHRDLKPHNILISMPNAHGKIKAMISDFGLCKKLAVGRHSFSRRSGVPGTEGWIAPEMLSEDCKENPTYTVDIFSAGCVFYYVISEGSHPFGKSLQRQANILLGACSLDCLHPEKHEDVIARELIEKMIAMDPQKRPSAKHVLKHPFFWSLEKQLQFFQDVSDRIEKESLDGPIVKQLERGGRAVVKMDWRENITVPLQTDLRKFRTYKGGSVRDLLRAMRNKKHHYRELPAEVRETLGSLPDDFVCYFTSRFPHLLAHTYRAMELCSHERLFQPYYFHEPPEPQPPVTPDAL", "test": "Selectivity interaction (KinomeScan (DiscoverX)) EUB0000655a ERN1", "conditions": "at 10 µM"}, "[8]": {"biological_target": "T2, Ephrin type-B receptor 1 (Homo sapiens) (UniProt P54762)", "T2 sequence (whole entry)": "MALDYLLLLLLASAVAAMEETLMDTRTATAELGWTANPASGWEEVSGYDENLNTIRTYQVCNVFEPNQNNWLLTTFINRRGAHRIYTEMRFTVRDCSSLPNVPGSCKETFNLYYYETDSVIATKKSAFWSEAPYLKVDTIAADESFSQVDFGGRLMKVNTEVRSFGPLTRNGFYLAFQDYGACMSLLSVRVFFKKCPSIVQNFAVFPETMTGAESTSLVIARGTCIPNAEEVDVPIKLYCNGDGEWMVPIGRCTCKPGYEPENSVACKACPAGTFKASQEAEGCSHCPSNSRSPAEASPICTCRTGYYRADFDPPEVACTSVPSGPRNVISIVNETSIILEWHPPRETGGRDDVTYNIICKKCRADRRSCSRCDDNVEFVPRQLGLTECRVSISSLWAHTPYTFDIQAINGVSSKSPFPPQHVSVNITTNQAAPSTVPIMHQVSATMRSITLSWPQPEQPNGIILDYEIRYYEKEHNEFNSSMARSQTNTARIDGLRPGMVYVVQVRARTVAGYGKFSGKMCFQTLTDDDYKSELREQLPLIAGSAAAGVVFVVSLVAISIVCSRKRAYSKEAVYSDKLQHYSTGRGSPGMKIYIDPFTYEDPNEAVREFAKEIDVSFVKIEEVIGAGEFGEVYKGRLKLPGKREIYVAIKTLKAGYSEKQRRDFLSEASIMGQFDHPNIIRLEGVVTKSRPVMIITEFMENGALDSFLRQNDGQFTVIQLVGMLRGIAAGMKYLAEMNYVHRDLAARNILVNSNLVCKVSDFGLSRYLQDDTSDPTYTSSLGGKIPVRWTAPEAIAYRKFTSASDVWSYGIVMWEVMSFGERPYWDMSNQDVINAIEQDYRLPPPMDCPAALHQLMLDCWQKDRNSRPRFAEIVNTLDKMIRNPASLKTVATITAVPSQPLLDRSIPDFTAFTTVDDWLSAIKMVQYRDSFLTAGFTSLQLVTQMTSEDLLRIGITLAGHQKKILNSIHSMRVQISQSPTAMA", "test": "Selectivity interaction (KinomeScan (DiscoverX)) EUB0001079a EPHB1", "conditions": "at 1 µM"}, "[9]": {"biological_target": "Ribosomal protein S6 kinase alpha-5 (Homo sapiens) (UniProt O75582)", "sequence (O75582 whole entry, looked up)": "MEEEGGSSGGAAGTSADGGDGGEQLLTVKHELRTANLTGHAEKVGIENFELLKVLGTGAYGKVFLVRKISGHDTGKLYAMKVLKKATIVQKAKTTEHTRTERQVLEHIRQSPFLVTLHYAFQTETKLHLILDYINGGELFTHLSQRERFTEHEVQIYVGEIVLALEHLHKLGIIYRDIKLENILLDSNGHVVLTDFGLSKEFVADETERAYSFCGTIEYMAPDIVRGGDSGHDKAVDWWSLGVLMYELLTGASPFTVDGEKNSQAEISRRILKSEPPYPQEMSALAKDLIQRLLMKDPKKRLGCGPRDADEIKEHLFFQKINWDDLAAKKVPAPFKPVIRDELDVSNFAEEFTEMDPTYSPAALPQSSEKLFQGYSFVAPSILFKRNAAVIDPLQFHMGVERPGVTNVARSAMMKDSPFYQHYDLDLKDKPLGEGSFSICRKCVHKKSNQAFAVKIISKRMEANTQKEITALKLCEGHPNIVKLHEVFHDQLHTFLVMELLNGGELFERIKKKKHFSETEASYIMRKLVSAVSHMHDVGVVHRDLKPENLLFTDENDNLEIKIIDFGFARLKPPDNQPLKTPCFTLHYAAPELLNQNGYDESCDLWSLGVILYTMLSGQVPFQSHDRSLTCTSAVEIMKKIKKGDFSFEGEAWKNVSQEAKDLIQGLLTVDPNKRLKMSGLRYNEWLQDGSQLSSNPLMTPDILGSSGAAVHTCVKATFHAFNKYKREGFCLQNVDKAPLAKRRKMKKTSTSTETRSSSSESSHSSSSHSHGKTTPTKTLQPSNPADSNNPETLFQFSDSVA", "test": "Selectivity interaction (Kinase panel (KiNativ target engagement assay in Jurkat cells)) EUB0001635a RPS6KA5", "assay_type": "cell-based", "conditions": "Selectivity number of off-targets 0.0, Selectivity number of targets 233.0, Source Knowledge https://www.sciencedirect.com/science/article/pii/S2451945619300674?via%3Dihub, at 1 µM"}},
  "data": [
    {"smiles": "CC[C@@H]1[C@H](F)C(=O)N[C@@H]1COc1nccc2cc(C(N)=O)c(OC)cc12", "note": "[ZIMLOVISERTIB]", "values": [
      {"measurement": "% of inhibition", "setting": "[1]", "value": -10.5, "unit": "%"}
    ]},
    {"smiles": "COc1cc(Nc2nc(C)cc(-c3cnn4nc(OC)ccc34)n2)cc(C(F)(F)F)c1", "values": [
      {"measurement": "% of control", "setting": "[2]", "value": 93, "unit": "%"},
      {"measurement": "% of control", "setting": "[3]", "value": 69, "unit": "%"}
    ]},
    {"smiles": "CN(C)C/C=C/C(=O)Nc1ccc(C(=O)N2CCCC(Nc3ncc(Cl)c(-c4c[nH]c5ccccc45)n3)C2)cc1", "note": "(centres undefined)", "values": [
      {"measurement": "% of control", "setting": "[4]", "value": 85, "unit": "%"},
      {"measurement": "% of control", "setting": "[5]", "value": 69, "unit": "%"},
      {"measurement": "% of control", "setting": "[6]", "value": 83, "unit": "%"}
    ]},
    {"smiles": "CN(C)CCOc1ccc(-c2nc(-c3ccncc3)c(-c3ccc4c(c3)CC/C4=N\\O)[nH]2)cc1", "values": [
      {"measurement": "% of control", "setting": "[7]", "value": 62, "unit": "%"}
    ]},
    {"smiles": "Nc1cnc(N2CCc3cc(S(=O)(=O)Nc4c(F)cc(Cl)cc4F)cc(N4CCCC4=O)c32)nc1", "note": "[TP-020n]", "values": [
      {"measurement": "% of control", "setting": "[8]", "value": 92, "unit": "%"}
    ]},
    {"smiles": "C=CC(=O)Nc1ccc(C(=O)Nc2[nH]nc3c2CN(C(=O)N[C@H](CN(C)C)c2ccccc2)C3(C)C)cc1", "values": [
      {"measurement": "% of engagement", "setting": "[9]", "value": 5.7, "unit": "%"}
    ]}
  ]
}
